Read-outs that look alike come from different tables or passages of the source.
Legend:
[1] = Mini-dissolution in FaSSIF / FeSSIF medium at 37° C.; format: physicochemical; details: for Dissolution levels in FaSSIF pH 6.5: FaSSIF pH 6.5, 37° C.; for Dissolution levels in FeSSIF pH 5.0: FeSSIF pH 5.0, 37° C.
Procedure: All dispersions were agitated at 37° C. for up to 2 hours. At defined time intervals (30 min. 60 min, 120 min), sample aliquots of homogeneous dispersions were withdrawn by a syringe, and filtrated via syringe filter adapters (PTFE, 0.45 μm).

[2] = Thermodynamic solubility (24 h, 37° C.) in FaSSIF medium or USP Phosphate buffer; format: physicochemical; details: 24 h; for Thermodynamic solubility FaSSIF pH 6.5: FaSSIF pH 6.5, 37° C.; for Thermodynamic solubility PBS buffer 7.4: USP Phosphate buffer pH 7.4, 37° C.
[3] = Water Vapour Sorption isotherm (25° C., DVS-Intrinsic), hygroscopicity acc. to Ph. Eur. 5.11.; format: physicochemical; details: for water uptake levels: 25° C.
Procedure: (§1) (based on multiple measurements on different samples of form A2). […] DSC scan of form A2 was acquired on a Mettler-Toledo DSC 821 with a heating rate of 50 K/min, using nitrogen purge gas at 50 mL/min. TGA scan of form A2 was acquired on a Mettler-Toledo TGA 851 with a heating rate of 5 K/min, using nitrogen purge gas at 50 mL/min. […] Eur. Criteria (section 5.11.). Water Vapour Sorption isotherm was acquired on a DVS-Intrinsic system from SMS.
(based on multiple measurements on different samples of form NF5). […] Eur. Criteria (section 5.11.). […] Water Vapour Sorption isotherm was acquired on a DVS-Intrinsic system from SMS.
(based on multiple measurements on one sample of form NF6). […] Eur. Criteria (section 5.11.). […] Water Vapour Sorption isotherm was acquired on a DVS-Intrinsic system from SMS.
Eur. Criteria (section 5.11.). […] Water Vapour Sorption isotherm was acquired on a DVS-Intrinsic system from SMS.
as §1, with “Other physical properties of” for “(based on multiple measurements on different samples of”, “form Fumarate-NF1 include the following: ^1H-NMR spectroscopic data reveal a API:Fumarate molar ratio of 1:1.” for “form A2).”, “form Fumarate-NF1” for “form A2”, “of 5” for “of 50”, “5.11.). […]” for “5.11.).”
Other physical properties of form Maleate-NF1 include the following: ^1H-NMR spectroscopic data reveal a API:Maleate molar ratio of 1:1. […] DSC scan of form Maleate-NF1 was acquired on a Mettler-Toledo DSC 821 with a heating rate of 5 K/min, using nitrogen purge gas at 50 mL/min. TGA scan of form Maleate-NF1 was acquired on a Mettler-Toledo TGA 851 with a heating rate of 5 K/min, using nitrogen purge gas at 50 mL/min. […] Form Maleate-NF1 can be classified as non-hygroscopic according to Ph. Eur. Criteria (section 5.11.). […] Water Vapour Sorption isotherm was acquired on a DVS-Intrinsic system from SMS.
Other physical properties of form Citrate-NF1 include the following: ^1H-NMR spectroscopic data reveal a API:Citrate molar ratio of 1:1. […] DSC scan of form Citrate-NF1 was acquired on a Mettler-Toledo DSC 821 with a heating rate of 5 K/min, using nitrogen purge gas at 50 mL/min. TGA scan of form Citrate-NF1 was acquired on a Mettler-Toledo TGA 851 with a heating rate of 5 K/min, using nitrogen purge gas at 50 mL/min. […] Eur. Criteria (section 5.11.). […] Water Vapour Sorption isotherm was acquired on a DVS-Intrinsic system from SMS.
(based on multiple measurements on different samples of form A1). […] DSC scan of form A1 was acquired on a Mettler-Toledo DSC 821 with a heating rate of 50 K/min, using nitrogen purge gas at 50 mL/min. TGA scan of form A1 was acquired on a Mettler-Toledo TGA 851 with a heating rate of 5 K/min, using nitrogen purge gas at 50 mL/min. […] Eur. Criteria (section 5.11.). […] Water Vapour Sorption isotherm was acquired on a DVS-Intrinsic system from SMS. […] Dissolution level of form A1 in Fasted-State Simulated Intestinal Fluid [FaSSIF, pH 6.5] at 37° C. was determined to be approx. 36 μg/mL (after 2 h), and dissolution level of form A1 in Fed-State Simulated Intestinal Fluid [FeSSIF, pH 5.0] at 37° C. was determined to be approx. 214 μg/mL (after 2 h), respectively (see example 11).
All forms were characterized according to standard methods which are found in e.g. Rolf Hilfiker, ‘Polymorphism in the Pharmaceutical Industry’. Wiley-VCH. Weinheim 2006 (Chapter 6: X-Ray Diffraction. Chapter 6: Vibrational Spectroscopy. Chapter 3: Thermal Analysis, Chapter 9: Water Vapour Sorption, and references therein); and H. G. Brittain, ‘Polymorphism in Pharmaceutical Solids. Vol. 95. Marcel Dekker Inc., New York 1999 (Chapter 6 and references therein).

[4] = pH 6.5
[5] = relative humidity range 0-80% rh
[6] = relative humidity range 90-98% rh

Structure (SMILES)	Dissolution levels in FaSSIF pH 6.5 ([1]; 30 min) [μg/mL]	Dissolution levels in FaSSIF pH 6.5 ([1]; 60 min) [μg/mL]	Dissolution levels in FaSSIF pH 6.5 ([1]; 120 min (2 h))	Dissolution levels in FaSSIF pH 6.5 ([1]; 120 min (2 h), listed as Free base form Al) [μg/mL]	Dissolution levels in FeSSIF pH 5.0 ([1]; 30 min) [μg/mL]	Dissolution levels in FeSSIF pH 5.0 ([1]; 60 min) [μg/mL]	Dissolution levels in FeSSIF pH 5.0 ([1]; 120 min (2 h))	Dissolution levels in FeSSIF pH 5.0 ([1]; 120 min (2 h), listed as Free base form A1) [μg/mL]	Thermodynamic solubility FaSSIF pH 6.5 [2]	Thermodynamic solubility FaSSIF pH 6.5 ([2]; listed as Free base form A1) [μg/mL]	Thermodynamic solubility PBS buffer 7.4 [2]	Thermodynamic solubility PBS buffer 7.4 ([2]; listed as Free base form A1) [µg/mL]	hygroscopicity classification according to Ph. Eur. Criteria (section 5.11.) [3]	water uptake levels [3, 5] [wt %]	water uptake levels [3, 6] [wt %]	kinetic solubility levels (4 h), factor higher vs form A1 [4]	hygroscopicity classification according to Ph. Eur. Criteria (section 5.11.) ([3]; listed as NF6)	hygroscopicity classification according to Ph. Eur. Criteria (section 5.11.) ([3]; listed as NF5)	water uptake levels ([3]; relative humidity level of 98% rh) [wt %]	water uptake levels ([3]; relative humidity range 0-90% rh) [wt %]
C=CC(=O)N1CCC(CNc2ncnc(N)c2-c2ccc(Oc3ccccc3)cc2)CC1 [form A1, 1-(4-{[6-Amino-5-(4-phenoxy-phenyl)-pyrimidin-4-ylamino]-methyl}-piperidin-1-yl)-propenone]	25	33	approx. 36 μg/mL	36	190	205	approx. 214 μg/mL	214	approx. 21 μg/mL	21	approx. 14 μg/mL	14	slightly hygroscopic	≤ 1	≤ 2					
C=CC(=O)N1CCC(CNc2ncnc(N)c2-c2ccc(Oc3ccccc3)cc2)CC1 [form NF6, 1-(4-{[6-Amino-5-(4-phenoxy-phenyl)-pyrimidin-4-ylamino]-methyl}-piperidin-1-yl)-propenone]													slightly hygroscopic	≤ 2	≤ 3	~3	Slightly hygroscopic			
C=CC(=O)N1CCC(CNc2ncnc(N)c2-c2ccc(Oc3ccccc3)cc2)CC1 [form NF5, 1-(4-{[6-Amino-5-(4-phenoxy-phenyl)-pyrimidin-4-ylamino]-methyl}-piperidin-1-yl)-propenone]													slightly hygroscopic			~1.5		Slightly hygroscopic	≤ 2	≤ 1
